Measurements from ChEMBL document CHEMBL1909046, “DrugMatrix in vitro pharmacology data”.

Columns and labels:
[1] = DRUGMATRIX: Calcium Channel Type L, Phenylalkylamine radioligand binding (ligand: [3H] (-)-Desmethoxyverapamil (D-888)); format: cell membranes, Rattus norvegicus, Wistar, Brain, Membrane; details: Not Active = under 50% inhibition at 10 µM
[2] = biological target: T1, Muscarinic acetylcholine receptor M2 (Homo sapiens, UniProt P08172); format: cell membranes, CHO-K1, Membrane; note: in other assays of this panel Not Active means under 50% inhibition at 10 µM
T1 sequence (P08172 whole entry): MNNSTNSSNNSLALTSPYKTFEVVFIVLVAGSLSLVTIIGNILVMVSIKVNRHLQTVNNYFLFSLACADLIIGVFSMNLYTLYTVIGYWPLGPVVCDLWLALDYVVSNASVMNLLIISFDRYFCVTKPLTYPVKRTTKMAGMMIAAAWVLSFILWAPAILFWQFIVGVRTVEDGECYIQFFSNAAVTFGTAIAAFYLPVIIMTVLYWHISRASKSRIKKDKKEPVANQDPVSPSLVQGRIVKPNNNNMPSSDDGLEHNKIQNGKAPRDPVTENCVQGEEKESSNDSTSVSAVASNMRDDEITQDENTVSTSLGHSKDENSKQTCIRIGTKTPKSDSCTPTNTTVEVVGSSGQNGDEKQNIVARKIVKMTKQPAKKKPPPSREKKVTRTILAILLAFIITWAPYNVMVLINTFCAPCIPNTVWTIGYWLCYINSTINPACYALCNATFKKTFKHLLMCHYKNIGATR

[3] = biological target: Protein phosphatase 3 catalytic subunit alpha (Homo sapiens, UniProt Q08209); set-up: species or system Escherichia coli;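 note: inhibition of calcineurin (PP2B) enzyme activity, measured with DiFMUP as the substrate; in other assays of this panel Not Active means under 50% inhibition at 10 µM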
[4] = biological target: 5-hydroxytryptamine receptor 1B (Rattus norvegicus, UniProt P28564); format: cell membranes, Wistar, Cerebral cortex, Membrane; note: in other assays of this panel Not Active means under 50% inhibition at 10 µM
5-hydroxytryptamine receptor 1B, sequence (P28564 whole entry): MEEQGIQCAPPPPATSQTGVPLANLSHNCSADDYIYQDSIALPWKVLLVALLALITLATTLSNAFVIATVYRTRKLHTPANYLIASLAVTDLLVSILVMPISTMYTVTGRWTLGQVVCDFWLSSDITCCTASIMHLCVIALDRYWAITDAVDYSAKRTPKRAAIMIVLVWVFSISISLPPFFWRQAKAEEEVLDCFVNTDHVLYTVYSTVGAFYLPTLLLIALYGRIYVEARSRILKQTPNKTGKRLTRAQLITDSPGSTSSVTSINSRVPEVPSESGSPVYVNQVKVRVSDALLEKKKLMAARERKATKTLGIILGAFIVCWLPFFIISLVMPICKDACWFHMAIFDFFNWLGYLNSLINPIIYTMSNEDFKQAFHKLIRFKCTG

[5] = biological target: Acetylcholinesterase (Homo sapiens, UniProt P22303); assay: DRUGMATRIX: Acetylcholinesterase enzyme inhibition (substrate: acetylthiocholine); format: cell-based, HEK293; details: hek293; Not Active = under 50% inhibition at 10 µM
Acetylcholinesterase, sequence (P22303 whole entry): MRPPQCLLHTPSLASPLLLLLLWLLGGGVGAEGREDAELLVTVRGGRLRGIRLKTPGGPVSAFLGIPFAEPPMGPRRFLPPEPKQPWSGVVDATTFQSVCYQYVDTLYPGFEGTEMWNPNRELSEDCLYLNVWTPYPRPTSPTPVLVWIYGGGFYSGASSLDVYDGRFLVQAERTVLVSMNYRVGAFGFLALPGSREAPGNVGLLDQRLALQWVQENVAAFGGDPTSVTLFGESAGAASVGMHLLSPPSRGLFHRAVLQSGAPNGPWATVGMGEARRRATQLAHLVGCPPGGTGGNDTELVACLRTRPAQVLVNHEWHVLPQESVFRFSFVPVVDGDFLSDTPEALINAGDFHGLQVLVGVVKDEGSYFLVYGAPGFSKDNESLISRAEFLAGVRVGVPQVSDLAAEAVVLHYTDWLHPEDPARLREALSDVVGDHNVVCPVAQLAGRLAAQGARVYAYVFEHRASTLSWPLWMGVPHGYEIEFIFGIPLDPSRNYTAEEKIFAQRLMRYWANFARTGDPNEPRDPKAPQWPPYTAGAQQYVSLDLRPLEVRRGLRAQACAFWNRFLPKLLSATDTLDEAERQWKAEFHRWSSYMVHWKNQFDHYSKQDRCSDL

CC(C)(C#N)c1cc(Cn2cncn2)cc(C(C)(C)C#N)c1 [ANASTROZOLE]
IC50 [1]: Not Active | Ki [1]: Not Active | IC50 ([2]; cho-k1): Not Active | IC50 [3]: Not Active | IC50 [4]: Not Active | IC50 [5]: Not Active

CC12CCC(CC1=O)C2(C)C (stereo unspecified) [CAMPHOR]
IC50 [1]: Not Active | Ki [1]: Not Active | IC50 ([2]; cho-k1): Not Active | IC50 [3]: Not Active | IC50 [4]: Not Active | IC50 [5]: Not Active

CC12CCC(CC1)C(C)(C)O2 [EUCALYPTOL]
IC50 [1]: Not Active | Ki [1]: Not Active | IC50 ([2]; cho-k1): Not Active | IC50 [3]: Not Active | IC50 [4]: Not Active | IC50 [5]: Not Active

Cc1ccnc2c1NC(=O)c1cccnc1N2C1CC1 [NEVIRAPINE]
IC50 [1]: Not Active | Ki [1]: Not Active | IC50 ([2]; cho-k1): Not Active | IC50 [3]: Not Active | IC50 [4]: Not Active | IC50 [5]: Not Active

Clc1cc(Cl)c(OCC#CI)cc1Cl [HALOPROGIN]
IC50 [1]: Not Active | Ki [1]: Not Active | IC50 ([2]; cho-k1): Not Active | IC50 [3]: Not Active | IC50 [4]: Not Active | IC50 [5]: Not Active

Oc1ccccc1 [PHENOL]
IC50 [1]: Not Active | Ki [1]: Not Active | IC50 ([2]; cho-k1): Not Active | IC50 [3]: Not Active | IC50 [4]: Not Active | IC50 [5]: Not Active

CCCCCCNC(=O)n1cc(F)c(=O)[nH]c1=O [CARMOFUR]
IC50 [1]: Not Active | Ki [1]: Not Active | IC50 ([2]; cho-k1): Not Active | IC50 [3]: Not Active | IC50 [4]: Not Active | IC50 [5]: Not Active

Nc1ccc(C(=O)O)c(O)c1 [AMINOSALICYLIC ACID]
IC50 [1]: Not Active | Ki [1]: Not Active | IC50 ([2]; cho-k1): Not Active | IC50 [3]: Not Active | IC50 [4]: Not Active | IC50 [5]: Not Active

COc1cc(NC(C)CCCN)c2ncccc2c1 (stereo unspecified) [PRIMAQUINE]
IC50 [1]: Not Active | Ki [1]: Not Active | IC50 ([2]; cho-k1): Not Active | IC50 [3]: Not Active | IC50 [4]: Not Active | IC50 [5]: Not Active

Cc1cc(C(C)(C)C)c(O)c(C)c1CC1=NCCN1 [OXYMETAZOLINE]
IC50 ([1]; read-out: IC50): 2250 nM | Ki ([1]; read-out: Ki): 2180 nM | IC50 ([2]; cho-k1): Not Active | IC50 [3]: Not Active | IC50 ([4]; read-out: IC50): 2 nM | Ki ([4]; read-out: Ki): 0.909 nM | IC50 [5]: Not Active

O=c1[nH]cnc2c1ncn2[C@H]1CC[C@@H](CO)O1 [DIDANOSINE]
IC50 [1]: Not Active | Ki [1]: Not Active | IC50 ([2]; cho-k1): Not Active | IC50 [3]: Not Active | IC50 [4]: Not Active | IC50 [5]: Not Active

CC(=O)[C@]1(O)Cc2c(O)c3c(c(O)c2[C@@H](O[C@H]2C[C@H](N)[C@H](O)[C@H](C)O2)C1)C(=O)c1ccccc1C3=O [IDARUBICIN]
IC50 [1]: Not Active | Ki [1]: Not Active | IC50 ([2]; cho-k1): Not Active | IC50 [3]: Not Active | IC50 [4]: Not Active | IC50 [5]: Not Active

COC(=O)Nc1nc2ccc(Sc3ccccc3)cc2[nH]1 [FENBENDAZOLE]
IC50 [1]: Not Active | Ki [1]: Not Active | IC50 ([2]; cho-k1): Not Active | IC50 [3]: Not Active | IC50 [4]: Not Active | IC50 [5]: Not Active

CC(C)(c1ccc(O)cc1)c1ccc(O)cc1 [BISPHENOL A]
IC50 [1]: Not Active | Ki [1]: Not Active | IC50 ([2]; cho-k1): Not Active | IC50 [3]: Not Active | IC50 [4]: Not Active | IC50 [5]: Not Active

C=C(Cl)Cl [1,1-DICHLOROETHENE]
IC50 [1]: Not Active | Ki [1]: Not Active | IC50 ([2]; cho-k1): Not Active | IC50 [3]: Not Active | IC50 [4]: Not Active | IC50 [5]: Not Active

O=C(O)CCc1nc(-c2ccccc2)c(-c2ccccc2)o1 [OXAPROZIN]
IC50 [1]: Not Active | Ki [1]: Not Active | IC50 ([2]; cho-k1): Not Active | IC50 [3]: Not Active | IC50 [4]: Not Active | IC50 [5]: Not Active

NCC(CC(=O)O)c1ccc(Cl)cc1 (stereo unspecified) [BACLOFEN]
IC50 [1]: Not Active | Ki [1]: Not Active | IC50 ([2]; cho-k1): Not Active | IC50 [3]: Not Active | IC50 [4]: Not Active | IC50 [5]: Not Active

CC[C@H]1OC(=O)[C@H](C)[C@@H](O[C@H]2C[C@@](C)(OC)[C@@H](O)[C@H](C)O2)[C@H](C)[C@@H](O[C@@H]2O[C@H](C)C[C@H](N(C)C)[C@H]2O)[C@](C)(O)C[C@@H](C)C(=O)[C@H](C)[C@@H](O)[C@]1(C)O [ERYTHROMYCIN]
IC50 [1]: Not Active | Ki [1]: Not Active | IC50 ([2]; cho-k1): Not Active | IC50 [3]: Not Active | IC50 [4]: Not Active | IC50 [5]: Not Active

C=CCO [ALLYL ALCOHOL]
IC50 [1]: Not Active | Ki [1]: Not Active | IC50 ([2]; cho-k1): Not Active | IC50 [3]: Not Active | IC50 [4]: Not Active | IC50 [5]: Not Active

COC(=O)C[C@](O)(CCC(C)(C)O)C(=O)O[C@@H]1C(OC)=C[C@]23CCCN2CCc2cc4c(cc2[C@H]13)OCO4 [HARRINGTONINE]
IC50 [1]: Not Active | Ki [1]: Not Active | IC50 ([2]; cho-k1): Not Active | IC50 [3]: Not Active | IC50 [4]: Not Active | IC50 [5]: Not Active

CHROMIC CHLORIDE
IC50 [1]: Not Active | Ki [1]: Not Active | IC50 ([2]; cho-k1): Not Active | Ki ([2]; cho-k1): Not Active | IC50 [3]: Not Active | Ki [3]: Not Active | IC50 [4]: Not Active | Ki [4]: Not Active | IC50 [5]: Not Active | Ki [5]: Not Active

C#C[C@]1(O)CC[C@H]2[C@@H]3CCC4=CC(=O)CC[C@@H]4[C@H]3CC[C@@]21C [NORETHINDRONE]
IC50 [1]: Not Active | Ki [1]: Not Active | IC50 ([2]; cho-k1): Not Active | IC50 [3]: Not Active | IC50 [4]: Not Active | IC50 [5]: Not Active

O=C1CN(/N=C/c2ccc([N+](=O)[O-])o2)C(=O)N1 [NITROFURANTOIN]
IC50 [1]: Not Active | Ki [1]: Not Active | IC50 ([2]; cho-k1): Not Active | IC50 [3]: Not Active | IC50 [4]: Not Active | IC50 [5]: Not Active

c1ccc2c(c1)Nc1ccccc1S2 [PHENOTHIAZINE]
IC50 [1]: Not Active | Ki [1]: Not Active | IC50 ([2]; cho-k1): Not Active | IC50 [3]: Not Active | IC50 [4]: Not Active | IC50 [5]: Not Active

CC(CN1c2ccccc2Sc2ccccc21)N(C)C (stereo unspecified) [PROMETHAZINE]
IC50 ([1]; read-out: IC50): 866 nM | Ki ([1]; read-out: Ki): 842 nM | IC50 ([2]; read-out: IC50): 35 nM | Ki ([2]; read-out: Ki): 12 nM | IC50 [3]: Not Active | IC50 [4]: Not Active | IC50 [5]: Not Active

c1ccc(Cn2ccnc2)cc1
IC50 [1]: Not Active | Ki [1]: Not Active | IC50 ([2]; cho-k1): Not Active | IC50 [3]: Not Active | IC50 [4]: Not Active | IC50 [5]: Not Active

CC(C)Cn1cnc2c(N)nc3ccccc3c21 [IMIQUIMOD]
IC50 [1]: Not Active | Ki [1]: Not Active | Ki ([2]; cho-k1): Not Active | IC50 [3]: Not Active | IC50 [4]: Not Active | IC50 [5]: Not Active

OC[C@H]1OC2C3[C@@H](CO)OC(O[C@H]4[C@H](O)[C@@H](O)[C@@H](O[C@H]5[C@H](O)[C@@H](O)[C@@H](O[C@H]6[C@H](O)[C@@H](O)[C@@H](O[C@H]7[C@H](O)[C@@H](O)[C@@H](O[C@H]8[C@H](O)[C@@H](O)[C@@H](O[C@H]9[C@H](O)[C@@H](O)C(OC1[C@H](O)[C@H]2O)O[C@@H]9CO)O[C@@H]8CO)O[C@@H]7CO)O[C@@H]6CO)O[C@@H]5CO)O[C@@H]4CO)[C@H](O)[C@H]3O
IC50 [1]: Not Active | Ki [1]: Not Active | IC50 ([2]; cho-k1): Not Active | IC50 [3]: Not Active | IC50 [4]: Not Active | IC50 [5]: Not Active

COc1cc(/C=C/C(=O)O)ccc1O [FERULATE]
IC50 [1]: Not Active | Ki [1]: Not Active | IC50 ([2]; cho-k1): Not Active | IC50 [3]: Not Active | IC50 [4]: Not Active | IC50 [5]: Not Active

CCN1C[C@]2(COC)[C@H](O)C[C@H](OC)[C@@]34[C@@H]5C[C@@]6(O)[C@H](OC(=O)c7ccccc7)[C@@H]5[C@@](OC(C)=O)([C@@H]([C@H](OC)[C@H]23)[C@@H]14)[C@@H](O)[C@@H]6OC [ACONITINE]
IC50 [1]: Not Active | Ki [1]: Not Active | IC50 ([2]; cho-k1): Not Active | IC50 [3]: Not Active | IC50 [4]: Not Active | IC50 [5]: Not Active
